Measured values from patent US8592419B2, “Ceramides and apoptosis-signaling ligand” (MUSC Foundation for Research Development, priority 2004, dated 2013).

Experiments:
[1] = system: five different PCa cell lines; test: MTS cell viability assay, LCL204 treatments; type: cell-based, human; conditions: 24 hours treatment
Experimental: Cell lines. The human PCa cell lines DU145, LNCaP, DuPro, and PC-3 were purchased from ATCC (Manassas, Va., USA), and PPC-1 cells were from Dr. Yi Lu at the University of Tennessee (Memphis, Tenn.). All cells were cultured in RPMI 1640 (Mediatech Inc.; Herndon, Va., USA) supplemented with 10% heat-inactivated BGS (Hyclone; Logan, Utah, USA). Cells were maintained in 5% CO2 at 37° C. All experiments were performed in RPMI 1640 supplemented with 2% heat-inactivated BGS.
MTS cytotoxicity assays for LCL204 treatments. Cell viability was determined using the CellTiter 96 AQueous One Solution Cell Proliferation Assay (Promega; Madison, Wis., USA). 1×10^4 cells per well were seeded in 96-well plates overnight. The next day media was removed and replaced with either 100 μl media with vehicle control or media containing LCL204 at desired concentrations. Assays were carried out according to manufacturer's instruction as previously described (60). For experiments using enzyme inhibitors and LCL204, media was removed and replaced with 50 μl media containing vehicle only or indicated inhibitor. Cells were pretreated 1 hour at 37° C. before adding 50 μl media containing vehicle, inhibitor only, LCL204 only (2× concentration), or a combination. The remainder of the assay was carried out as described above.

[2] = system: total ceramide levels in DU145 cells; test: Ceramide measurement by mass spectrometry; type: cell-based, human; conditions: 10 μM
Experimental: Ceramide measurement. 2.1×10^6 cells were seeded in 100 mm plates overnight. The next day, media was removed and replaced with media containing vehicle control or LCL204 (10 μM) for indicated time points. Following treatment, cells were harvested by gentle scraping and immediate centrifugation at 4° C. for 5 minutes at 400×g. Cell pellets were then resuspended in ice cold PBS and stored at −80° C. For sphingolipid analysis, cell pellets were examined using mass spectometry as previously described (61).

[3] = system: AC mRNA; test: Reverse transcriptase PCR of AC mRNA; type: cell-based, human; conditions: 10 μM, DU145 cells
Experimental: Reverse Transcriptase PCR. DU145 cells were seeded in 6-well plates as described above. […] Cells were collected at indicated time points and total RNA was extracted using RNAqueous-4PCR kit (Ambion Inc.; Austin, TX), including the DNase I treatment step to remove DNA contamination. The level of transcripts of AC was assayed by two-step RT-PCR protocol (Ambion) and Rig/S15 was used as an internal control. The sequence of the primer for amplification of AC is as followed: [NT] 375 bp. All reactions were performed in a programmable thermal cycler (reverse transcription at 55° C. for 1 hour; PCR at 95° C., 3 minutes; 95° C., 30 second; 52° C., 1 minute and extension at 72° C. for 1 minute; final extension at 72° C., 10 minutes).

[4] = target: T1, ASMase (Homo sapiens, UniProt P17405); test: Acid sphingomyelinase activity assay; type: cell-based; conditions: DU145 cells, 10 μM
T1 construct: DU145 cells were lysed in 50 mM Tris (pH=7.4) using a probe sonicator; endogenous in cells; host or cells: DU145 (lysate of treated cells)
Experimental: Acid Sphingomyelinase Activity Assay. DU145 cells were lysed in 50 mM Tris (pH=7.4) using a probe sonicator. Cellular debris was removed after centrifugation at 3000×g for 10 minutes. Proteins (50 μg) were adjusted to a total volume of 100 μl and the reaction was started by adding 100 μl of the reaction mixture containing 1 mM EDTA, 250 mM sodium acetate (pH 5.0), 100 μM [choline-methyl-^14C] sphingomyelin and 0.1% Triton X. After incubation at 37° C. for one hour, the reaction was stopped by adding 1.5 ml of chloroform/methanol (2:1) and then 200 μl of water. Phases were separated by centrifugation at 2000×g for 5 minutes. Quantitation of the amount of released radioactive phosphocholine was determined by subjecting 400 μl of the upper phase to scintillation counting.

[5] = system: cFLIPS, Survivin, cIAP-1, RIP, Caspase 8; test: Anti-apoptotic proteins and caspase 8 after LCL204; conditions: DU145 cells

T1 sequence (P17405 47-631): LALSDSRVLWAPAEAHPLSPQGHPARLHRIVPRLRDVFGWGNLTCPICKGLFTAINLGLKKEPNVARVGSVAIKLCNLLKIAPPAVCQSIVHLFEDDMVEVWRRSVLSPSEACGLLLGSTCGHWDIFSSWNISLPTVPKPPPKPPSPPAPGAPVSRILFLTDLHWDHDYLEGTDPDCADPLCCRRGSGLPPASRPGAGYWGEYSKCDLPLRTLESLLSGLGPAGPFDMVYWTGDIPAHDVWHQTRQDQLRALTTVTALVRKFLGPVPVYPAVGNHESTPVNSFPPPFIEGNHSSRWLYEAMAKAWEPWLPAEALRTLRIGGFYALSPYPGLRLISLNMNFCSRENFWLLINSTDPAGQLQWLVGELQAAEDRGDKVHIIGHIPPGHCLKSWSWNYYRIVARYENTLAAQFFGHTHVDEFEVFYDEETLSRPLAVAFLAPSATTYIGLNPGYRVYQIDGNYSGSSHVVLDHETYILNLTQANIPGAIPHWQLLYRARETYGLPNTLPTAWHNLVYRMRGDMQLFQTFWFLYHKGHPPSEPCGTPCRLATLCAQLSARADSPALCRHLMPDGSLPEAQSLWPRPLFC

**Q.** With CCCCCCCCCCCCCCN[C@H](CO)[C@H](O)c1ccc([N+](=O)[O-])cc1.Cl [LCL204, (1R,2R) D-threo-2-N-Tetradecylamino-1-(4′-nitrophenyl)-1,3-propandiol hydrochloride] as the molecule, how does the cell death [1] read?
**A.** concentration-dependent cell death in the micromolar range

**Q.** And the total ceramide levels [2]?
**A.** rise in total ceramide levels within one hour

**Q.** And the “AC mRNA levels” value [3]?
**A.** no decrease in AC mRNA levels

**Q.** And the “earliest decrease in ASMase activity” value [4]?
**A.** 30 min

**Q.** And the “Caspase 8” value [5]?
**A.** unaffected

**Q.** And the anti-apoptotic proteins [5]?
**A.** down-regulation of anti-apoptotic proteins cFLIPS, Survivin, cIAP-1, and RIP
